Key:
[1] = target: T1, Alpha-1A adrenergic receptor (Rattus norvegicus, UniProt P43140); experiment: Displacement of [3H]prazosin from alpha1A adrenoceptor in rat submaxillary gland membrane; format: cell membranes
T1 sequence (P43140 whole entry): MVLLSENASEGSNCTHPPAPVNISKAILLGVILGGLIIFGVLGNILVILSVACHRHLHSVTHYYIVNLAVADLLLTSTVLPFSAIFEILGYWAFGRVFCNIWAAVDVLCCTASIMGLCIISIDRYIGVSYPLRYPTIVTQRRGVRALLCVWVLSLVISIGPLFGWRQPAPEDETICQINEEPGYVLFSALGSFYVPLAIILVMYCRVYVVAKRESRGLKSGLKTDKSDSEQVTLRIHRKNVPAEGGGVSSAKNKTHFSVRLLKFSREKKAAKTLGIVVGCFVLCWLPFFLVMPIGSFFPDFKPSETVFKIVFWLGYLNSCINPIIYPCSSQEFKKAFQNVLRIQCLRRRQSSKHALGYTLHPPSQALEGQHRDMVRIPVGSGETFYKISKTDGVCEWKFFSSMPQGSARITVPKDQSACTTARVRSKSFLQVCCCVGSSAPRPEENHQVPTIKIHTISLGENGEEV

[2] = target: T2, Alpha-1B adrenergic receptor (Rattus norvegicus, UniProt P15823); experiment: Displacement of [3H]prazosin from alpha1B adrenoceptor in rat liver membranes; format: cell membranes, Membrane
T2 sequence (P15823 whole entry): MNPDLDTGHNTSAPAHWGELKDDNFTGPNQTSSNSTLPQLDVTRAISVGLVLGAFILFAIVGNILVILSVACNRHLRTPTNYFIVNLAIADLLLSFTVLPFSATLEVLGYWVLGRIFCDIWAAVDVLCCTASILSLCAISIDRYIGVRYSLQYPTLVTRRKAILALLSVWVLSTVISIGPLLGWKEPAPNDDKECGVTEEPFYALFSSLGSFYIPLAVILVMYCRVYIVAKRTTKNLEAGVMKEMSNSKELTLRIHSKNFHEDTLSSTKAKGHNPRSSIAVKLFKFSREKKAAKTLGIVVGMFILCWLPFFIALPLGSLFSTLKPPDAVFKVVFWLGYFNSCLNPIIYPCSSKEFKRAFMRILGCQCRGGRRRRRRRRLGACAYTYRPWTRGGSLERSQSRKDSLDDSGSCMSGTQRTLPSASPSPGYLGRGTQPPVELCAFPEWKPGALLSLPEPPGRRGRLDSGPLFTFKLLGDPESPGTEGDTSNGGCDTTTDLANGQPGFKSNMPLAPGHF

Rattus norvegicus [3] = species: Rattus norvegicus; experiment: Selectivity ratio of Ki for beta adrenoceptor in rat brain to Ki for alpha1B adrenoceptor in rat liver membranes; format: cell membranes
[4] = target: T3, Adrenergic receptor alpha-2 (Rattus norvegicus, UniProt P22086+P19328+P22909); experiment: Binding affinity to alpha2 adrenoceptor in rat cerebral cortex; format: tissue-based
T3 sequence (P22086 whole entry): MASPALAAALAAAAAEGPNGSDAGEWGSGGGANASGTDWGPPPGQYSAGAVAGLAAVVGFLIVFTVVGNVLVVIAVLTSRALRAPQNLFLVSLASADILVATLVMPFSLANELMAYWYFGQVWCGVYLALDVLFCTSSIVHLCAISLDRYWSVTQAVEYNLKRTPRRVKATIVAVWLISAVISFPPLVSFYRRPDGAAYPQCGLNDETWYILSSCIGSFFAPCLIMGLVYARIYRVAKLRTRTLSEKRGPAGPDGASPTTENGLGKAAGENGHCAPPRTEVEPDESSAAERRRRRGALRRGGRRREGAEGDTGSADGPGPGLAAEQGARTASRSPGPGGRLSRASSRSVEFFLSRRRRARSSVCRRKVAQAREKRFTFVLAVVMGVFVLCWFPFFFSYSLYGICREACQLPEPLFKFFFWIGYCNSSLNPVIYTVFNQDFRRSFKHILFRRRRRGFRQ
T3 sequence (P19328 whole entry): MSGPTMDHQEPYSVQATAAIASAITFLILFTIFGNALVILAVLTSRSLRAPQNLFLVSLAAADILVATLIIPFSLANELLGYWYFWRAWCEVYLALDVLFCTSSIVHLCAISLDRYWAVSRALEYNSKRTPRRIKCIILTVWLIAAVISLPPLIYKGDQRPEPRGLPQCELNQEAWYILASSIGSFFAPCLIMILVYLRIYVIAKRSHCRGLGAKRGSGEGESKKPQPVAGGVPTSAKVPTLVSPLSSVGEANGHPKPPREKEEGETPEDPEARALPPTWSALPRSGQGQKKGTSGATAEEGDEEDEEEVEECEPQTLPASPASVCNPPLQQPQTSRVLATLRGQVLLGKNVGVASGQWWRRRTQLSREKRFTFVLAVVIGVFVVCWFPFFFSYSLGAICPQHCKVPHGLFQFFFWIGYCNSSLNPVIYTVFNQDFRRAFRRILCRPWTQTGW
T3 sequence (P22909 whole entry): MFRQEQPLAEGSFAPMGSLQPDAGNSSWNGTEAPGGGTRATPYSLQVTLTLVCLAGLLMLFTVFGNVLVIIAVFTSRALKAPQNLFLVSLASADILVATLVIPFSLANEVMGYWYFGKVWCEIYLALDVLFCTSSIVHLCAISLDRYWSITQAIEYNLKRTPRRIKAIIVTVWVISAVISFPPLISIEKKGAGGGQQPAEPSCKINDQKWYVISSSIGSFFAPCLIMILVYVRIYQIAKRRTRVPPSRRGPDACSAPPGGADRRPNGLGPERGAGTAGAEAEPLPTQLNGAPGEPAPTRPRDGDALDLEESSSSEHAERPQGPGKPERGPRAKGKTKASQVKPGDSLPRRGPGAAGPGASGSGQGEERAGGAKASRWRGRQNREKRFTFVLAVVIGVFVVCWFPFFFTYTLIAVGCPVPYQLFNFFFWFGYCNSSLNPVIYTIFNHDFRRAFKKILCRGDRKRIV

Adrenergic receptor beta = Adrenergic receptor beta (Rattus norvegicus, UniProt P18090+P10608+P26255); experiment: Binding affinity to beta adrenoceptor in rat brain; format: tissue-based
[5] = target: T4, Alpha-1B adrenergic receptor (Homo sapiens, UniProt P35368); experiment: Antagonist activity at human alpha1B adrenoceptor assessed as inhibition of norepinephrine-induced increase of intracellular calcium level by cell based assay; format: functional
T4 sequence (P35368 whole entry): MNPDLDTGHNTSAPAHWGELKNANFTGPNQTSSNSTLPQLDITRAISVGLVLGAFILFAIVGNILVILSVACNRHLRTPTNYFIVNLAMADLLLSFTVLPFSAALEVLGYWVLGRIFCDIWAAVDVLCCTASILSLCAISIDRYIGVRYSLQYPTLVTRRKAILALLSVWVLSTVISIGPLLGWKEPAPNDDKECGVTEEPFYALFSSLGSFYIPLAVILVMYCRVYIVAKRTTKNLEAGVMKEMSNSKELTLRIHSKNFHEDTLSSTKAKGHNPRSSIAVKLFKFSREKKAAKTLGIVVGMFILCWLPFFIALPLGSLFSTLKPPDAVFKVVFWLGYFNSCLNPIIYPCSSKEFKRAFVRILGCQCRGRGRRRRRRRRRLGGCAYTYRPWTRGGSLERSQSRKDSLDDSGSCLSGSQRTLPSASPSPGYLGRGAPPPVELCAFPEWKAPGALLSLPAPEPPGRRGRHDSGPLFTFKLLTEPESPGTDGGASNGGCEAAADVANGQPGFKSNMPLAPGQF

Rattus norvegicus [6] = species: Rattus norvegicus; experiment: Selectivity ratio of Ki for alpha2 adrenoceptor in rat cerebral cortex to Ki for alpha1B adrenoceptor in rat liver membranes; format: cell membranes
[7] = Selectivity ratio of Ki for human recombinant alpha1D adrenoceptor to Ki for alpha1B adrenoceptor in rat liver membranes; format: cell membranes
[8] = target: T5, Alpha-1D adrenergic receptor (Homo sapiens, UniProt P25100); experiment: Binding affinity to human recombinant alpha1D adrenoceptor
T5 sequence (P25100 whole entry): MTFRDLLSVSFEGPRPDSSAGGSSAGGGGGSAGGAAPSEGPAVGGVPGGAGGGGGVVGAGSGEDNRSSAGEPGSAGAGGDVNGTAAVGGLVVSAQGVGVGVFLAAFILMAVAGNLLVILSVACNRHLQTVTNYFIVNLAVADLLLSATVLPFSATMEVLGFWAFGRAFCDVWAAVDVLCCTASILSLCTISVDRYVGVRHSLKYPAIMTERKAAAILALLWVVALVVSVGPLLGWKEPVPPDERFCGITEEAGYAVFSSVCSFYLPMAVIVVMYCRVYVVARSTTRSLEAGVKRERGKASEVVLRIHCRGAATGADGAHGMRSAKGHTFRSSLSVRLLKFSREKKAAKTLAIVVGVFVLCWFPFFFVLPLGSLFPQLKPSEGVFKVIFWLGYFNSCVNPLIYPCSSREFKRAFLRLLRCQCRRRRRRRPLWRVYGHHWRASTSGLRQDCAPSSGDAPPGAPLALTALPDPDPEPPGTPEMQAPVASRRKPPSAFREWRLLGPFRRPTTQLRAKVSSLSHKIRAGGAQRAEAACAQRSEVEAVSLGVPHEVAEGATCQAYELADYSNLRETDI

| Compound | Ki [1] | Ki [2] | other results |
| --- | --- | --- | --- |
| c1ccc(CCCN2CCC(c3c[nH]c4ccccc34)CC2)cc1 | 16 nM | 13 nM |  |
| c1ccc2c(C3CCN(CCCC4CCCCC4)CC3)c[nH]c2c1 | 140 nM | 47 nM |  |
| Fc1ccc2c(C3CCN(CCCN4CCc5ccccc5C4)CC3)c[nH]c2c1 |  |  | Ratio Ki (Rattus norvegicus [3]): 40; Ki [4]: 90 nM; Ki (Adrenergic receptor beta): > 1000 nM; IC50 [5]: 560 nM; Ratio Ki (Rattus norvegicus [6]): 40; Ratio Ki [7]: 40; Ki [8]: 16 nM |
| c1ccc2c(C3CCN(CCCn4cccc4)CC3)c[nH]c2c1 | 86 nM | 11 nM |  |
| c1ccc2c(C3CCNCC3)c[nH]c2c1 | 3100 nM | 440 nM |  |
| CN(C)CCCN1CCC(c2c[nH]c3ccccc23)CC1 | 240 nM | 4.8 nM |  |

— ChEMBL document CHEMBL3608249, “Indolylpiperidine derivatives as potent and selective α1B adrenoceptor antagonists” (Bioorg Med Chem Lett, 2015)
